Test results as given in patent US8163909B2, “Substituted hydroxyethyl amine compounds as beta-secretase modulators and methods of use” (Amgen Inc., priority 2007, dated 2012).
Where two headings read alike, the source gives them in different places.

What was measured:
CYP2D6 = CYP2D6 (Homo sapiens, UniProt P10635); assay: CYP2D6 inhibition assay (bufuralol, pooled human liver microsomes)
CYP3A4 (CYP3A) = CYP3A4 (CYP3A) (Homo sapiens, UniProt P08684); assay: in vitro; conditions: microsomes, pH 7.4;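 further: inhibition of CYP3A-mediated 1-hydroxymidazolam formation after 10 min incubation with NADPH, quantified by HPLC MS relative to metabolite produced without test compound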
[1] = biological target: Beta Secretase enzyme (BACE) (Homo sapiens, UniProt P56817); assay: In vitro enzymatic BACE FRET (fluorescence resonance energy transfer) assay; format: biochemical;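 further: fluorescence read after 1 h with 50 nM quenched peptide substrate spanning the BACE cleavage site, in pH 4.2 acetate buffer containing 10% DMSO and nonionic detergent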
[2] = test system: Aβ40 in conditioned medium of cells stably expressing Amyloid Precursor Protein (APP); assay: In vitro BACE cell-based assay (Aβ40 in conditioned medium, sandwich ELISA); conditions: Homo sapiens;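 further: compounds added as a dilution series, secreted peptide quantified by europium time-resolved fluorescence readout, potency fitted from percent of control versus compound concentration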
[3] = Microsomal stability assay, rat liver microsomes;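 further: rat liver microsomes (0.25 mg/mL) with about 1 µM compound plus 1 mM NADPH, pH 7.4, 37 °C for 30 min, parent left measured by LC-MS/MS against 0 min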
[4] = Microsomal stability assay, human liver microsomes;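 further: pooled human liver microsomes at 0.25 mg/mL with 1 µM compound and NADPH at 37 °C, pH 7.4, for 30 min, unchanged parent quantified by LC-MS/MS against the 0 min sample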
[5] = 2D6 IC50, CYP enzyme inhibition
[6] = Table 2, read-out: BACE1 FRET assay
[7] = HEK293, Table 2, HEK cells, read-out: HEK cell assay
[8] = 2D6 IC50 (uM), CYP enzyme inhibition
[9] = read-out: BACE1 FRET assay (IC50)
[10] = HEK293, HEK cells, read-out: HEK cell assay (IC50)
[11] = 2D6 IC50 (uM), CYP2D6 inhibition
[12] = BACE enzyme assay IC50, read-out: BACE1 FRET assay
[13] = HEK293, HEK cell-based assay IC50, read-out: HEK cell assay
[14] = BACE enzyme assay, IC50's in uM, read-out: BACE1 FRET assay
[15] = HEK293, cell-based assay, HEK cells, IC50's in uM, read-out: HEK cell assay

Beta Secretase enzyme (BACE), sequence (P56817 46-501): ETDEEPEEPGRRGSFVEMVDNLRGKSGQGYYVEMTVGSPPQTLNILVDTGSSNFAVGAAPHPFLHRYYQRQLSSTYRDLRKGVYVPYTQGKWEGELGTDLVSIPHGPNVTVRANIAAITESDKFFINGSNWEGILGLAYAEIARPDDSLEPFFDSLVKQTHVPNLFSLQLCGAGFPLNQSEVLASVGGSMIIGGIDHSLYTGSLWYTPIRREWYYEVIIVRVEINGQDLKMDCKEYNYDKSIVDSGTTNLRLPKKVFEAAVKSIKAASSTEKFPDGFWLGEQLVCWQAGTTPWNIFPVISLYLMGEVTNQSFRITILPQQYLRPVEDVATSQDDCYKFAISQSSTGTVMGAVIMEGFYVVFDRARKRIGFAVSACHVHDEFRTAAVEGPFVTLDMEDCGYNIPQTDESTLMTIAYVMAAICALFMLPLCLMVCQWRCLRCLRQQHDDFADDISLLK
CYP2D6, sequence (P10635 whole entry): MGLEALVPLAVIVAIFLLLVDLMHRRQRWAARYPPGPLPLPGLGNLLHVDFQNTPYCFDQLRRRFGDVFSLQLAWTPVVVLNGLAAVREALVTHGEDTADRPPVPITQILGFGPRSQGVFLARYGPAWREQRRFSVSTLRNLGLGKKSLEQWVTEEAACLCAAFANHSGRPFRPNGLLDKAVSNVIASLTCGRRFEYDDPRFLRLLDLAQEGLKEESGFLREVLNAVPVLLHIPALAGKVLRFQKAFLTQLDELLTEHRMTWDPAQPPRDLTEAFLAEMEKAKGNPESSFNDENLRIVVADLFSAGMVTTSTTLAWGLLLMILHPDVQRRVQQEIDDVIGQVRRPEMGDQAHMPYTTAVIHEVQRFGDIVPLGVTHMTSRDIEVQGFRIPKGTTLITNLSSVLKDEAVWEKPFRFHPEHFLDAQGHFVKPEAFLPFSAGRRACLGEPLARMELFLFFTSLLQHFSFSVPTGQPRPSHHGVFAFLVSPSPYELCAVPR
CYP3A4 (CYP3A), sequence (P08684 2-503): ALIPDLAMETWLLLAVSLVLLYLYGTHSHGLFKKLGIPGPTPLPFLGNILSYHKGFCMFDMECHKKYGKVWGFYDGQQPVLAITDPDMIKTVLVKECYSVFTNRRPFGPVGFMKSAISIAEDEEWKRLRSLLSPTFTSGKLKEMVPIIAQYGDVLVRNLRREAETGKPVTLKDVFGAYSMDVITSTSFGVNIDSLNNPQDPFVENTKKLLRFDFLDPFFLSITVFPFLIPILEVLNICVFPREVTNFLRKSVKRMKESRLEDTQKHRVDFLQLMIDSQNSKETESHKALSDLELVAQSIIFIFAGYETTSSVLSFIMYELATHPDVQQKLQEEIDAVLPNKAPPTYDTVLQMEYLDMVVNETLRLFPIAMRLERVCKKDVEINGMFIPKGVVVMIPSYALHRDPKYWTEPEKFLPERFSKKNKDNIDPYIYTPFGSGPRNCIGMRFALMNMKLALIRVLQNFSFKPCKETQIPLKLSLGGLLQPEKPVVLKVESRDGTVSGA

IC50 (CYP2D6; [5]) [µM] | RLM ([3]; rat liver microsomal data) [µL/min/mg] | IC50 (CYP2D6; 2D6 IC50, CYP2D6 inhibition) [µM] | RLM ([3]; rat liver microsomes) [µL/min/mg] | IC50 [1, 9] [µM] | HLM ([4]; human liver microsomes) [µL/min/mg] | IC50 [2, 10] [µM] | IC50 [1, 14] [µM] | HLM ([4]; human liver microsomal data) [µL/min/mg] | IC50 [2, 15] [µM] | Structure (SMILES) | also measured
– | – | – | – | – | – | – | – | – | – | COCC(=O)N[C@@H](Cc1cccc(F)c1)[C@H](O)CN[C@H]1CC2(CCC2)Oc2c(-c3ccncc3)cc(CC(C)(C)Cl)cc21 [compound 536] | IC50 (CYP2D6; [8]): ≥ 27 µM; IC50 (CYP3A4 (CYP3A)): ≥ 27000 nM; IC50 ([1]; BACE enzyme assay, read-out: BACE1 FRET assay): 0.019 µM; IC50 ([2]; HEK293, HEK cells, read-out: HEK cell assay): 0.011 µM
– | – | 1.7 | 73 | 0.01 | 14 | 0.004 | – | – | – | CC(=O)N[C@@H](Cc1cccc(F)c1)[C@H](O)CN[C@H]1CC2(CCC2)Oc2c(-c3ccncc3)cc(CC(C)(C)C)cc21 [compound 592] | –
– | – | 0.3 | 61 | 0.158 | 44 | 0.077 | – | – | – | CC(=O)N[C@@H](Cc1cccc(F)c1)[C@H](O)CN[C@H]1CC2(CCC2)Oc2c1cc(Cl)cc2-n1ccnc1 [compound 594] | –
– | – | 2.7 | 172 | 0.01 | 76 | 0.01 | – | – | – | COCC(=O)N[C@@H](Cc1ccccc1)[C@H](O)CN[C@H]1CC2(CCC2)Oc2c(-c3ccncc3)cc(CC(C)C)cc21 [compound 603] | –
– | – | 2.7 | 215 | 0.018 | 89 | 0.013 | – | – | – | CO[C@H](C)C(=O)N[C@@H](Cc1ccccc1)[C@H](O)CN[C@H]1CC2(CCC2)Oc2c(-c3ccncc3)cc(CC(C)C)cc21 [compound 604] | –
– | – | 2.3 | 71 | 0.014 | 73 | 0.016 | – | – | – | COCC(=O)N[C@@H](Cc1ccc(F)cc1)[C@H](O)CN[C@H]1CC2(CCC2)Oc2c(-c3ccncc3)cc(CC(C)C)cc21 [compound 605] | –
– | – | 2 | 85 | 0.041 | 51 | 0.026 | – | – | – | CO[C@H](C)C(=O)N[C@@H](Cc1ccc(F)cc1)[C@H](O)CN[C@H]1CC2(CCC2)Oc2c(-c3ccncc3)cc(CC(C)C)cc21 [compound 606] | –
– | – | 1.7 | 72 | 0.01 | 65 | 0.007 | – | – | – | COCC(=O)N[C@@H](Cc1cccc(F)c1)[C@H](O)CN[C@H]1CC2(CCC2)Oc2c(-c3ccncc3)cc(CC(C)C)cc21 [compound 607] | –
– | – | 1.5 | 85 | 0.012 | 35 | 0.006 | – | – | – | COCC(=O)N[C@@H](Cc1cccc(C#N)c1)[C@H](O)CN[C@H]1CC2(CCC2)Oc2c(-c3ccncc3)cc(CC(C)C)cc21 [compound 619] | –
– | – | 1.9 | 105 | 0.01 | 48 | 0.005 | – | – | – | CO[C@H](C)C(=O)N[C@@H](Cc1cccc(C#N)c1)[C@H](O)CN[C@H]1CC2(CCC2)Oc2c(-c3ccncc3)cc(CC(C)C)cc21 [compound 620] | –
– | – | 6.6 | 161 | 0.026 | 32 | 0.007 | – | – | – | CO[C@H](C)C(=O)N[C@@H](Cc1cc(F)cc(F)c1)[C@H](O)CN[C@H]1CC2(CCC2)Oc2c(-c3cncn3C)cc(CC(C)C)cc21 [compound 622] | –
– | – | 4 | 220 | 0.021 | 37 | 0.003 | – | – | – | COCC(=O)N[C@@H](Cc1cc(F)cc(F)c1)[C@H](O)CN[C@H]1CC2(CCC2)Oc2c(-c3nccn3C)cc(CC(C)C)cc21 [compound 630] | –
– | – | 3.1 | 166 | 0.065 | 57 | 0.015 | – | – | – | CO[C@H](C)C(=O)N[C@@H](Cc1cncs1)[C@H](O)CN[C@H]1CC2(CCC2)Oc2c(-c3ccncc3)cc(CC(C)(C)C)cc21 [compound 632] | –
– | – | 4.1 | 420 | 0.074 | 44 | 0.01 | – | – | – | COCC(=O)N[C@@H](Cc1ccccc1)[C@H](O)CN[C@H]1CC2(CCC2)Oc2c(-c3cncn3C)cc(CC(C)C)cc21 [compound 635] | –
– | – | 0.2 | 413 | 0.076 | 706 | 0.024 | – | – | – | CC(=O)N[C@@H](Cc1cccc(-n2ccnc2)c1)[C@H](O)CN[C@H]1CC2(CCC2)Oc2ccc(CC(C)(C)C)cc21 [compound 659] | –
– | – | – | 113 | – | 34 | – | – | – | – | COCC(=O)N[C@@H](Cc1cc(F)cc(F)c1)[C@H](O)CN[C@H]1CC2(CCC2)Oc2c1cc(CC(C)C)nc2-c1ccncc1 [compound 682] | IC50 (CYP2D6; [11]): 1.1 µM; IC50 [1, 12]: 0.009 µM; IC50 [2, 13]: 0.011 µM
– | – | – | 36 | – | 51 | – | – | – | – | CC(=O)N[C@@H](Cc1cc(F)cc(F)c1)[C@H](O)CN[C@H]1CC2(CCC2)Oc2c1cc(C1CC1)cc2-n1ccnc1 [compound 705] | IC50 (CYP2D6; [11]): 0.6 µM; IC50 [1, 12]: 0.032 µM; IC50 [2, 13]: 0.013 µM
– | 157 | – | – | – | – | – | 0.016 | 267 | – | CC(C)(C)Cc1cnc2c(c1)[C@@H](NC[C@@H](O)[C@H](Cc1ccc(F)cc1)NC(=O)[C@@H]1CN(Cc3cncs3)CCO1)CC1(CCC1)O2 [compound 788] | IC50 (CYP2D6; [8]): 0.6 µM; IC50 ([2]; HEK293, HEK cell-based assay, IC50's in uM, read-out: HEK cell assay): 0.013 µM
0.9 | 60 | – | – | – | – | – | 0.005 | 36 | 0.019 | C#Cc1cc(C[C@H](NC(=O)CC)[C@H](O)CN[C@H]2CC3(CCC3)Oc3ncc(CC(C)(C)C)cc32)ccc1F [compound 848] | –
1.1 | 88 | – | – | – | – | – | 0.005 | 90 | 0.147 | C#Cc1cc(C#C)cc(C[C@H](NC(=O)COC)[C@H](O)CN[C@H]2CC3(CCC3)Oc3ncc(CC(C)(C)C)cc32)c1 [compound 858] | –
0.7 | 119 | – | – | – | – | – | 1.21 | 66 | 1.15 | COCC(=O)N[C@@H](Cc1cc(F)cc(-c2nccs2)c1)[C@H](O)CN[C@]1(C)CC2(CCC2)Oc2ncc(CC(C)(C)C)cc21 [compound 867] | –
5.7 | 278 | – | – | – | – | – | 0.007 | 382 | 0.009 | COCC(=O)N[C@@H](Cc1cccc(C(C)=O)c1)[C@H](O)CN[C@H]1CC2(CCC2)Oc2ncc(CC(C)(C)C)cc21 [compound 872] | –
0.5 | 103 | – | – | – | – | – | 6.25 | 40 | 2.58 | CC(C)(C)Cc1cnc2c(c1)[C@@H](NC[C@@H](O)[C@H](Cc1ccc3c(c1)OCO3)NC(=O)C(C)(C)C)CC1(CCC1)O2 [compound 882] | –
3.4 | 140 | – | – | – | – | – | 0.213 | 29 | 1.55 | CCO[C@@H](C)C(=O)N[C@@H](Cc1ccc2c(c1)OCO2)[C@H](O)CN[C@H]1CC2(CCC2)Oc2ncc(CC(C)(C)C)cc21 [compound 888] | –
3.8 | 73 | – | – | – | – | – | 0.006 | 45 | 0.009 | C#Cc1cccc(C[C@H](NC(=O)[C@H]2CCCO2)[C@H](O)CN[C@H]2CC3(CCC3)Oc3ncc(CC(C)(C)C)cc32)c1 [compound 896] | –
6.3 | 60 | – | – | – | – | – | 0.013 | 35 | 1.19 | C#Cc1cccc(C[C@H](NC(=O)[C@@H](C)OC)[C@H](O)CN[C@H]2CC3(CCC3)Oc3ncc(CC(C)(C)C)cc32)c1F [compound 912] | –
7.1 | 76 | – | – | – | – | – | 0.021 | 41 | 0.063 | C#Cc1cccc(C[C@H](NC(=O)[C@@H]2CCCO2)[C@H](O)CN[C@H]2CC3(CCC3)Oc3ncc(CC(C)(C)C)cc32)c1F [compound 913] | –

Structure (SMILES) | IC50 (CYP2D6; [5]) [µM] | RLM ([3]; rat liver microsomal data) [µL/min/mg] | IC50 (CYP2D6; 2D6 IC50, CYP2D6 inhibition) [µM] | RLM ([3]; rat liver microsomes) [µL/min/mg] | IC50 [1, 9] [µM] | HLM ([4]; human liver microsomes) [µL/min/mg] | IC50 [2, 10] [µM] | IC50 [1, 14] [µM] | HLM ([4]; human liver microsomal data) [µL/min/mg] | IC50 [2, 15] [µM] | also measured
COCC(=O)N[C@@H](Cc1ccc2c(c1)OCO2)[C@@H](CN[C@H]1CC2(CCC2)Oc2ncc([C@H](F)C(C)(C)C)cc21)OC [compound 447] | 14 | – | – | – | – | – | – | – | – | – | IC50 (CYP3A4 (CYP3A)): 14000 nM; IC50 [1, 6]: 2.64 µM; IC50 [2, 7]: 3.99 µM
COCC(=O)N[C@@H](Cc1ccc(F)cc1)[C@H](O)CN[C@H]1CC2(CCC2)Oc2c1cc(CC(C)(C)C)nc2-n1ccnc1 [compound 448] | 1.8 | 79 | – | – | – | – | – | – | – | – | IC50 (CYP3A4 (CYP3A)): 100 nM; IC50 [1, 6]: 0.106 µM; IC50 [2, 7]: 0.153 µM
C#Cc1cccc(C[C@H](NC(=O)COC)[C@H](O)CN[C@H]2C[C@@]3(CCOC3)Oc3ncc(CC(C)(C)C)cc32)c1 [compound 869, N-((1S,2R)-3-(((3S,4′S)-6′-(2,2-dimethylpropyl)-3′,4,4′,5-tetrahydrospiro[furan-3,2′-pyrano[2,3-b]pyridin]-4′-yl)amino)-1-(3-ethynylbenzyl)-2-hydroxypropyl)-2-methoxyacetamide] | 9.5 | 55 | – | – | – | – | – | 0.006 | 21 | 0.01 | –
